The structures appear in SMILES notation.

Usually IC50 stands for the concentration needed to halve the response being measured.

This assay has as its target T1, human glucocorticoid receptor (GR) complex (Homo sapiens, UniProt P04150).
T1 construct: made in house; host or cells: insect expression system (baculovirus lysate)
T1 sequence (P04150 1-777): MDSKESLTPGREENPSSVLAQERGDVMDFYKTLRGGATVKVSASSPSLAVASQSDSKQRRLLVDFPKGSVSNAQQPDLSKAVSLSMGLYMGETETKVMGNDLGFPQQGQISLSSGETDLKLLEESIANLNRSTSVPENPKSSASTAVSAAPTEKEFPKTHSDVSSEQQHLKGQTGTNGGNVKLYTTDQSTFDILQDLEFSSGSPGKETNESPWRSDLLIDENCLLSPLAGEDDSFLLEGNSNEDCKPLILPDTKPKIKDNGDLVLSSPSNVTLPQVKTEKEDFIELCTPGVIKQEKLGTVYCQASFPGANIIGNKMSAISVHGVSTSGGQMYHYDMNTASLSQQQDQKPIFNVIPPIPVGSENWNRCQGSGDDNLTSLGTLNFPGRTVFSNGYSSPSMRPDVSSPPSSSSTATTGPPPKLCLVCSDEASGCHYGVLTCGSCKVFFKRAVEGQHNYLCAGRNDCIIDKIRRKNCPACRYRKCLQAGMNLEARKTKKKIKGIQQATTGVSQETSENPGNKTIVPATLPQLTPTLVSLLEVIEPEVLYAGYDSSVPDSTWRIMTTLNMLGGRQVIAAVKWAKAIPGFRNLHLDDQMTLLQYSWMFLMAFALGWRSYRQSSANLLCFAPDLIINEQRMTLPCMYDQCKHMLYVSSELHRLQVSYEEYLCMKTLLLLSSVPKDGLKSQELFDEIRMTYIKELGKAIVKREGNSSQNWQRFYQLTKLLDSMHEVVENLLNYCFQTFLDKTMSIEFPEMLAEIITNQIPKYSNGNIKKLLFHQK
Kind of assay: Glucocorticoid receptor competitive binding assay (fluorescence polarization). The conditions noted are these: competition with TAMRA-labeled dexamethasone, read-out: potent activity (IC50) in the GR binding assay. The procedure:
Compounds of the invention were evaluated for binding to the steroid receptor by a fluorescence polarization competitive binding assay. Detailed descriptions for preparation of recombinant glucocorticoid receptor (GR) complex used in the assay is described in U.S. Patent Application Publication No. US 2003/0017503, filed May 20, 2002, and incorporated herein by reference in its entirety. Preparation of the tetramethylrhodamine (TAMRA)-labeled dexamethasone probe was accomplished using a standard literature procedure (M. Pons et al., J. Steroid Biochem., 1985, 22, pp. 267-273).
The affinity of the probe for the steroid receptor was then determined in a titration experiment. The fluorescence polarization value of the probe in assay buffer was measured on an SLM-8100 fluorometer using the excitation and emission maximum values described above. Aliquots of expression vector lysate were added and fluorescence polarization was measured after each addition until no further change in polarization value was observed. Non-linear least squares regression analysis was used to calculate the dissociation constant of the probe from the polarization values obtained for lysate binding to the probe.
This assay uses fluorescence polarization (FP) to quantitate the ability of test compounds to compete with tetramethylrhodamine (TAMRA)-labeled dexamethasone for binding to a human glucocorticoid receptor (GR) complex prepared from an insect expression system. The assay buffer was: 10 mM TES, 50 mM KCl, 20 mM Na2MoO4.2H2O, 1.5 mM EDTA, 0.04% w/v CHAPS, 10% v/v glycerol, 1 mM dithiothreitol, pH 7.4. Test compounds were dissolved to 1 mM in neat DMSO and then further diluted to 10× assay concentration in assay buffer supplemented with 10% v/v DMSO. Test compounds were serially diluted at 10× assay concentrations in 10% DMSO-containing buffer in 96-well polypropylene plates. Binding reaction mixtures were prepared in 96-well black Dynex microtiter plates by sequential addition of the following assay components to each well: 15 μL of 10× test compound solution, 85 μL of GR-containing baculovirus lysate diluted 1:170 in assay buffer, and 50 μL of 15 nM TAMRA-labeled dexamethasone. Positive controls were reaction mixtures containing no test compound; negative controls (blanks) were reaction mixtures containing 0.7 μM to 2 μM dexamethasone. The binding reactions were incubated for 1 hour at room temperature and then read for fluorescence polarization in the LJL Analyst set to 550 nm excitation and 580 nm emission, with the Rhodamine 561 dichroic mirror installed. IC50 values were determined by iterative non-linear curve fitting of the FP signal data to a 4-parameter logistic equation.
For orientation: In fluorescence polarisation assays a small probe gives low polarisation when free and higher when bound to something large.

In the case of `Cc1ccc(OCC(NS(=O)(=O)c2c(C)cc(C)cc2C)C(F)(F)F)c(C)c1` (stereo not shown) [N-[1-(2,4-Dimethylphenoxymethyl)-2,2,2-trifluoroethyl]-2,4,6-trimethylbenzenesulfonamide], the IC50 is not above 100 nM. Consider `Cc1ccc(SCC(NS(=O)(=O)c2c(C)cc(C)cc2C)C(F)(F)F)c(C)c1` (stereo not shown) [N-[1-(2,4-Dimethylphenylsulfanylmethyl)-2,2,2-trifluoroethyl]-2,4,6-trimethylbenzenesulfonamide], for which the IC50 was not above 100 nM. On to `Cc1cc(C)c(S(=O)(=O)NC(CSc2cc(Cl)ccc2Cl)C(F)(F)F)c(C)c1` (stereo not shown) [N-[1-(2,5-Dichlorophenylsulfanylmethyl)-2,2,2-trifluoroethyl]-2,4,6-trimethylbenzenesulfonamide], for which the IC50 was not above 100 nM. Take `COc1ccc(OC)c(SCC(NS(=O)(=O)c2c(C)cc(C)cc2C)C(F)(F)F)c1` (stereo not shown) [N-[1-(2,5-Dimethoxyphenylsulfanylmethyl)-2,2,2-trifluoroethyl]-2,4,6-trimethylbenzenesulfonamide]: the IC50 was not above 100 nM.

`Cc1cc(C)c(S(=O)(=O)NC(CSc2cc(C)ccc2C)C(F)(F)F)c(C)c1` (stereo not shown) [N-[1-(2,5-Dimethylphenylsulfanylmethyl)-2,2,2-trifluoroethyl]-2,4,6-trimethylbenzenesulfonamide]: the IC50 is not above 100 nM.

For the compound `Cc1cc(C)c(S(=O)(=O)NC(CSc2c(Cl)cccc2Cl)C(F)(F)F)c(C)c1` (stereo not shown) [N-[1-(2,6-Dichlorophenylsulfanylmethyl)-2,2,2-trifluoroethyl]-2,4,6-trimethylbenzenesulfonamide], the IC50 was not above 100 nM.

Consider `Cc1cc(C)c(S(=O)(=O)NC(COc2cc(F)ccc2Br)C(F)(F)F)c(C)c1` (stereo not shown) [N-[1-(2-Bromo-5-fluorophenoxymethyl)-2,2,2-trifluoroethyl]-2,4,6-trimethylbenzenesulfonamide], for which the IC50 was not above 100 nM.

In the case of `Cc1cc(C)c(S(=O)(=O)NC(CSc2ccccc2Br)C(F)(F)F)c(C)c1` (stereo not shown) [N-[1-(2-Bromophenylsulfanylmethyl)-2,2,2-trifluoroethyl]-2,4,6-trimethylbenzenesulfonamide], the IC50 was not above 100 nM. Take `Cc1cc(C)c(S(=O)(=O)NC(CSc2ccc(F)cc2Cl)C(F)(F)F)c(C)c1` (stereo not shown) [N-[1-(2-Chloro-4-fluorophenylsulfanylmethyl)-2,2,2-trifluoroethyl]-2,4,6-trimethylbenzenesulfonamide]: the IC50 was not above 100 nM.

Consider `Cc1cc(C)c(S(=O)(=O)NC(COc2ccc(C)cc2Cl)C(F)(F)F)c(C)c1` (stereo not shown) [N-[1-(2-Chloro-4-methylphenoxymethyl)-2,2,2-trifluoroethyl]-2,4,6-trimethylbenzenesulfonamide], for which the IC50 is not above 100 nM.

`Cc1cc(C)c(S(=O)(=O)NC(COc2cc(C)ccc2Cl)C(F)(F)F)c(C)c1` (stereo not shown) [N-[1-(2-Chloro-5-methylphenoxymethyl)-2,2,2-trifluoroethyl]-2,4,6-trimethylbenzenesulfonamide]: the IC50 was not above 100 nM. For the compound `Cc1cc(C)c(S(=O)(=O)NC(CSc2c(C)cccc2Cl)C(F)(F)F)c(C)c1` (stereo not shown) [N-[1-(2-Chloro-6-methylphenylsulfanylmethyl)-2,2,2-trifluoroethyl]-2,4,6-trimethylbenzenesulfonamide], the half-inhibitory concentration (IC50) was not above 100 nM. Under `Cc1cc(C)c(S(=O)(=O)NC(CSc2ccccc2Cl)C(F)(F)F)c(C)c1` (stereo not shown) [N-[1-(2-Chlorophenylsulfanylmethyl)-2,2,2-trifluoroethyl]-2,4,6-trimethylbenzenesulfonamide] stands not above 100 nM. Take `Cc1cc(C)c(S(=O)(=O)NC(COc2ccccc2C#N)C(F)(F)F)c(C)c1` (stereo not shown) [N-[1-(2-Cyanophenoxymethyl)-2,2,2-trifluoroethyl]-2,4,6-trimethylbenzenesulfonamide]: the IC50 was not above 100 nM. Regarding `CCc1ccccc1SCC(NS(=O)(=O)c1c(C)cc(C)cc1C)C(F)(F)F` (stereo not shown) [N-[1-(2-Ethylphenylsulfanylmethyl)-2,2,2-trifluoroethyl]-2,4,6-trimethylbenzenesulfonamide], the IC50 was not above 100 nM. With `Cc1cc(C)c(S(=O)(=O)NC(CSc2ccccc2C(C)(C)C)C(F)(F)F)c(C)c1` (stereo not shown) [N-[1-(2-tert-Butylphenylsulfanylmethyl)-2,2,2-trifluoroethyl]-2,4,6-trimethylbenzenesulfonamide], the IC50 was not above 100 nM. Turning to `Cc1cc(C)c(S(=O)(=O)NC(CSc2ccc(Cl)c(Cl)c2)C(F)(F)F)c(C)c1` (stereo not shown) [N-[1-(3,4-Dichlorophenylsulfanylmethyl)-2,2,2-trifluoroethyl]-2,4,6-trimethylbenzenesulfonamide], the concentration for half-maximal inhibition (IC50) was not above 100 nM.

Consider `Cc1cc(C)c(S(=O)(=O)NC(COc2cc(Cl)cc(Cl)c2)C(F)(F)F)c(C)c1` (stereo not shown) [N-[1-(3,5-Dichlorophenoxymethyl)-2,2,2-trifluoroethyl]-2,4,6-trimethylbenzenesulfonamide], for which the IC50 was not above 100 nM. Regarding `Cc1cc(C)cc(OCC(NS(=O)(=O)c2c(C)cc(C)cc2C)C(F)(F)F)c1` (stereo not shown) [N-[1-(3,5-Dimethylphenoxymethyl)-2,2,2-trifluoroethyl]-2,4,6-trimethylbenzenesulfonamide], the concentration for half-maximal inhibition (IC50) is not above 100 nM. As for `Cc1cc(C)cc(SCC(NS(=O)(=O)c2c(C)cc(C)cc2C)C(F)(F)F)c1` (stereo not shown) [N-[1-(3,5-Dimethylphenylsulfanylmethyl)-2,2,2-trifluoroethyl]-2,4,6-trimethylbenzenesulfonamide], the IC50 was not above 100 nM. For `Cc1cc(C)c(S(=O)(=O)NC(COc2cccc(Br)c2)C(F)(F)F)c(C)c1` (stereo not shown) [N-[1-(3-Bromophenoxymethyl)-2,2,2-trifluoroethyl]-2,4,6-trimethylbenzenesulfonamide], the IC50 is not above 100 nM. Under `Cc1cc(C)c(S(=O)(=O)NC(CSc2cccc(Br)c2)C(F)(F)F)c(C)c1` (stereo not shown) [N-[1-(3-Bromophenylsulfanylmethyl)-2,2,2-trifluoroethyl]-2,4,6-trimethylbenzenesulfonamide] stands not above 100 nM. `Cc1cc(C)c(S(=O)(=O)NC(COc2ccc(C#N)c(Cl)c2)C(F)(F)F)c(C)c1` (stereo not shown) [N-[1-(3-Chloro-4-cyanophenoxymethyl)-2,2,2-trifluoroethyl]-2,4,6-trimethylbenzenesulfonamide]: the IC50 was not above 100 nM. On to `Cc1cc(C)c(S(=O)(=O)NC(CSc2ccc(F)c(Cl)c2)C(F)(F)F)c(C)c1` (stereo not shown) [N-[1-(3-Chloro-4-fluorophenylsulfanylmethyl)-2,2,2-trifluoroethyl]-2,4,6-trimethylbenzenesulfonamide], for which the IC50 is not above 100 nM.

As to `Cc1cc(C)c(S(=O)(=O)NC(COc2ccc(C)c(Cl)c2)C(F)(F)F)c(C)c1` (stereo not shown) [N-[1-(3-Chloro-4-methylphenoxymethyl)-2,2,2-trifluoroethyl]-2,4,6-trimethylbenzenesulfonamide], the IC50 was not above 100 nM. For the compound `Cc1cc(C)c(S(=O)(=O)NC(COc2cccc(Cl)c2)C(F)(F)F)c(C)c1` (stereo not shown) [N-[1-(3-Chlorophenoxymethyl)-2,2,2-trifluoroethyl]-2,4,6-trimethylbenzenesulfonamide], the concentration for half-maximal inhibition (IC50) was not above 100 nM. Consider `Cc1cc(C)c(S(=O)(=O)NC(CSc2cccc(Cl)c2)C(F)(F)F)c(C)c1` (stereo not shown) [N-[1-(3-Chlorophenylsulfanylmethyl)-2,2,2-trifluoroethyl]-2,4,6-trimethylbenzenesulfonamide], for which the IC50 was not above 100 nM.

In the case of `Cc1cc(C)c(S(=O)(=O)NC(COc2cccc(C#N)c2)C(F)(F)F)c(C)c1` (stereo not shown) [N-[1-(3-Cyanophenoxymethyl)-2,2,2-trifluoroethyl]-2,4,6-trimethylbenzenesulfonamide], the IC50 was not above 100 nM.

Source of the values: patent US20100048950A1 (BOEHRINGER INGELHEIM INTERNATIONAL GMBH, priority 2007, published 2010).
